Assay results reported in PubChem BioAssay (NCI).
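96-well plates; 48 h exposure; 5 concentrations. Endpoints by linear interpolation between flanking doses. Not reached: highest tested concentration assigned. GI50 marks 50% less growth. TGI denotes the concentration required for complete inhibition of growth.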

Legend:
Assay in all cases: NCI-60 cell line screen, 48 h
[1] = system: CAKI-1 renal
[2] = system: OVCAR-3 ovarian
[3] = system: BT-549 breast
[4] = system: COLO 205 colon
[5] = system: 786-0 renal
[6] = system: UACC-62 melanoma
[7] = system: UACC-257 melanoma
[8] = system: SNB-19 CNS
[9] = system: SNB-75 CNS
[10] = system: IGROV1 ovarian
[11] = system: MDA-MB-231 breast
[12] = system: SF-539 CNS
[13] = system: SK-MEL-2 melanoma
[14] = system: TK-10 renal
[15] = system: OVCAR-8 ovarian
[16] = system: LOX IMVI melanoma
[17] = system: NCI/ADR-RES ovarian
[18] = system: M14 melanoma
[19] = system: NCI-H23 lung
[20] = system: SK-OV-3 ovarian
[21] = system: PC-3 prostate
[22] = system: NCI-H460 lung
[23] = system: U251 CNS
[24] = system: HT29 colon
[25] = system: SK-MEL-28 melanoma
[26] = system: MCF7 breast
[27] = system: HCC-2998 colon
[28] = system: HOP-62 NSCLC
[29] = system: SF-295 CNS
[30] = system: HCT-116 colon
[31] = system: MOLT-4 leukemia
[32] = system: SN12C renal
[33] = system: SW-620 colon
[34] = system: EKVX NSCLC
[35] = system: SK-MEL-5 melanoma
[36] = system: KM12 colon
[37] = system: K-562 leukemia
[38] = system: T-47D breast
[39] = system: A498 renal
[40] = system: HS 578T breast
[41] = system: SF-268 CNS
[42] = system: RXF 393 renal
[43] = system: HL-60(TB) leukemia
[44] = system: OVCAR-4 ovarian
[45] = system: A549 NSCLC
[46] = system: RPMI-8226 leukemia
[47] = system: MALME-3M melanoma
[48] = system: CCRF-CEM leukemia
[49] = system: MDA-MB-435
[50] = system: OVCAR-5 ovarian
[51] = system: NCI-H522 lung
[52] = system: HOP-92 NSCLC
[53] = system: NCI-H226 lung
[54] = system: UO-31 renal
[55] = system: DU-145 prostate
[56] = system: HCT-15 colon
[57] = system: ACHN renal

Compound `Cc1ccc(NC2=CC(=O)C(=O)c3ccccc32)c(C)c1` has a GI50 [1] of 2 µM, a TGI [1] of 7.95 µM and a GI50 [2] of 1.49 µM. The TGI [2] was 4.47 µM, the GI50 [3] was 2.17 µM and the TGI [3] was 7.2 µM. It also gave a GI50 [4] of 3.06 µM, a TGI [4] of 11.6 µM and a GI50 [5] of 8.44 µM. For the same compound, the TGI [5] was 20.8 µM, the GI50 [6] was 1.78 µM and the TGI [6] was 3.72 µM. It also gave a GI50 [7] of 1.96 µM, a TGI [7] of 4.44 µM and a GI50 [8] of 3.88 µM. For the same compound, the TGI [8] was 15 µM, the GI50 [9] was 1.57 µM and the TGI [9] was 3.49 µM. The GI50 [10] was 1.88 µM, the TGI [10] was 6.68 µM and the GI50 [11] was 3.03 µM. It also gave a TGI [11] of 19.4 µM, a GI50 [12] of 3.63 µM and a TGI [12] of 13.2 µM. The GI50 [13] was 2.29 µM, the TGI [13] was 6.4 µM and the GI50 [14] was 0.596 µM. It also gave a TGI [14] of 12.2 µM, a GI50 [15] of 3.32 µM and a TGI [15] of 17 µM. For the same compound, the GI50 [16] was 1.28 µM, the TGI [16] was 4.46 µM and the GI50 [17] was 2.92 µM. The TGI [17] was 11.8 µM, the GI50 [18] was 1.78 µM and the TGI [18] was 3.26 µM. The GI50 [19] was 1.78 µM, the TGI [19] was 4.51 µM and the GI50 [20] was 13.8 µM. It also gave a TGI [20] of 27.9 µM, a GI50 [21] of 3.37 µM and a TGI [21] of 17.1 µM. For the same compound, the GI50 [22] was 2.57 µM, the TGI [22] was 7.68 µM and the GI50 [23] was 3.07 µM. For the same compound, the TGI [23] was 11.9 µM, the GI50 [24] was 2.51 µM and the TGI [24] was 7.08 µM. The GI50 [25] was 3.54 µM, the TGI [25] was 13.5 µM and the GI50 [26] was 0.905 µM. It also gave a TGI [26] of 4.77 µM, a GI50 [27] of 2.54 µM and a TGI [27] of 7.91 µM. The GI50 [28] was 3.24 µM, the TGI [28] was 12.5 µM and the GI50 [29] was 1.68 µM. The TGI [29] was 3.37 µM, the GI50 [30] was 1.66 µM and the TGI [30] was 4.23 µM. The GI50 [31] was 2.88 µM, the TGI [31] was 16.6 µM and the GI50 [32] was 2.81 µM. The TGI [32] was 9.17 µM, the GI50 [33] was 3.26 µM and the TGI [33] was 12.8 µM. It also gave a GI50 [34] of 10.3 µM, a TGI [34] of 24.3 µM and a GI50 [35] of 1.44 µM. The TGI [35] was 2.79 µM, the GI50 [36] was 2.82 µM and the TGI [36] was 13.1 µM. It also gave a GI50 [37] of 4.03 µM, a TGI [37] of 29.4 µM and a GI50 [38] of 3.96 µM. It also gave a TGI [38] of 25.2 µM, a GI50 [39] of 4.69 µM and a TGI [39] of 17.8 µM. It also gave a GI50 [40] of 2.35 µM, a TGI [40] of 7.99 µM and a GI50 [41] of 3.75 µM. The TGI [41] was 16.2 µM, the GI50 [42] was 9.59 µM and the TGI [42] was 21.6 µM. It also gave a GI50 [43] of 2.59 µM, a TGI [43] of 8.06 µM and a GI50 [44] of 2.53 µM. The TGI [44] was 12.2 µM, the GI50 [45] was 1.97 µM and the TGI [45] was 4.34 µM. For the same compound, the GI50 [46] was 4.84 µM, the TGI [46] was 53.7 µM and the GI50 [47] was 1.76 µM. It also gave a TGI [47] of 3.78 µM, a GI50 [48] of 6.23 µM and a TGI [48] of over 100 µM. It also gave a GI50 [49] of 1.79 µM, a TGI [49] of 3.48 µM and a GI50 [50] of 6.66 µM. For the same compound, the TGI [50] was 21.6 µM, the GI50 [51] was 1.52 µM and the TGI [51] was 5.87 µM. It also gave a GI50 [52] of 13.3 µM, a TGI [52] of 42.3 µM and a GI50 [53] of 2.85 µM. The TGI [53] was 12.2 µM, the GI50 [54] was 2.19 µM and the TGI [54] was 14.5 µM. It also gave a GI50 [55] of 1.58 µM, a TGI [55] of 2.93 µM and a GI50 [56] of 2.74 µM. It also gave a TGI [56] of 17.1 µM, a GI50 [57] of 3.71 µM and a TGI [57] of 13.9 µM.
